{
  "source": "paper PMC7031696",
  "about": "(Cell chemical biology, 2019)",
  "system": "3D7-MR4 trophozoite parasite-infected RBCs",
  "assay": "Metabolomic profiling (hydrophilic metabolite changes, UHPLC-MS)",
  "format": "cell-based, Plasmodium falciparum",
  "data": [
    {"smiles": "CC(C)(C)NCc1cc(Nc2ccnc3cc(Cl)ccc23)c2c(c1O)CCCC2", "note": "[Naphtoquine, Naphthoquine, reference compound]", "values": [
      {"measurement": "Log2(fold changes) adenosine", "setting": "metabolite adenosine, log2 fold change", "result": 0.0000},
      {"measurement": "Log2(fold changes) alanine/sarcosine", "setting": "metabolite alanine/sarcosine, log2 fold change", "result": -0.0537},
      {"measurement": "Log2(fold changes) anthranilate", "setting": "metabolite anthranilate, log2 fold change", "result": 0.0000},
      {"measurement": "Log2(fold changes) arginine", "setting": "metabolite arginine, log2 fold change", "result": 0.0159},
      {"measurement": "Log2(fold changes) asparagine", "setting": "metabolite asparagine, log2 fold change", "result": 0.0139},
      {"measurement": "Log2(fold changes) aspartate", "setting": "metabolite aspartate, log2 fold change", "result": -0.0605},
      {"measurement": "Log2(fold changes) biotin", "setting": "metabolite biotin, log2 fold change", "result": 0.0000},
      {"measurement": "Log2(fold changes) cCMP", "setting": "metabolite cCMP, log2 fold change", "result": 0.0520},
      {"measurement": "Log2(fold changes) cGMP", "setting": "metabolite cGMP, log2 fold change", "result": 0.0000},
      {"measurement": "Log2(fold changes) carnitine", "setting": "metabolite carnitine, log2 fold change", "result": 0.0000},
      {"measurement": "Log2(fold changes) citrate/isocitrate", "setting": "metabolite citrate/isocitrate, log2 fold change", "result": -0.0500},
      {"measurement": "Log2(fold change) of coenzyme A", "setting": "metabolite coenzyme A", "result": -0.1736},
      {"measurement": "Log2(fold change) of cyclic-AMP", "setting": "metabolite cyclic-AMP", "result": "-3.95e-5"},
      {"measurement": "Log2(fold change) of cytidine", "setting": "metabolite cytidine", "result": 0.0481},
      {"measurement": "Log2(fold change) of dAMP", "setting": "metabolite dAMP", "result": -0.6907},
      {"measurement": "Log2(fold change) of dATP", "setting": "metabolite dATP", "result": 0.1926},
      {"measurement": "Log2(fold change) of dCDP", "setting": "metabolite dCDP", "result": -0.7164},
      {"measurement": "Log2(fold change) of dCMP", "setting": "metabolite dCMP", "result": -0.1991},
      {"measurement": "Log2(fold change) of dCTP", "setting": "metabolite dCTP", "result": -0.0054},
      {"measurement": "Log2(fold change) of dGDP/ADP", "setting": "metabolite dGDP/ADP", "result": -0.3882},
      {"measurement": "Log2(fold change) of dGMP/AMP", "setting": "metabolite dGMP/AMP", "result": -0.6721},
      {"measurement": "Log2(fold change) of dGTP/ATP", "setting": "metabolite dGTP/ATP", "result": 0.1282},
      {"measurement": "Log2(fold change) of dTDP", "setting": "metabolite dTDP", "result": -0.6082},
      {"measurement": "Log2(fold change) of dTMP", "setting": "metabolite dTMP", "result": -0.8354},
      {"measurement": "Log2(fold change) of dTTP", "setting": "metabolite dTTP", "result": 0.1193},
      {"measurement": "Log2(fold change) of dUMP", "setting": "metabolite dUMP", "result": 0.0000},
      {"measurement": "Log2(fold change) of dUTP", "setting": "metabolite dUTP", "result": 0.0000},
      {"measurement": "Log2(fold change) of deoxyguanosine", "setting": "metabolite deoxyguanosine", "result": 0.0000},
      {"measurement": "Log2(fold change) of deoxyinosine", "setting": "metabolite deoxyinosine", "result": 0.0000},
      {"measurement": "Log2(fold change) of deoxyribose-phosphate", "setting": "metabolite deoxyribose-phosphate", "result": 0.0000},
      {"measurement": "Log2(fold change) of deoxyuridine", "setting": "metabolite deoxyuridine", "result": 0.0000},
      {"measurement": "Log2(fold change) of dihydroorotate", "setting": "metabolite dihydroorotate", "result": -0.0270},
      {"measurement": "Log2(fold change) of folate", "setting": "metabolite folate", "result": -0.0482},
      {"measurement": "Log2(fold change) of fructose-1-6-bisphosphate", "setting": "metabolite fructose-1-6-bisphosphate", "result": 0.2760},
      {"measurement": "Log2(fold change) of fructose-6-phosphate", "setting": "metabolite fructose-6-phosphate", "result": 0.2447},
      {"measurement": "Log2(fold change) of fumarate", "setting": "metabolite fumarate", "result": 0.1140},
      {"measurement": "Log2(fold change) of glucono-lactone", "setting": "metabolite glucono-lactone", "result": 0.0480},
      {"measurement": "Log2(fold change) of glucose-1/6-phosphate", "setting": "metabolite glucose-1/6-phosphate", "result": 0.0000},
      {"measurement": "Log2(fold change) of glutamate", "setting": "metabolite glutamate", "result": 0.0377},
      {"measurement": "Log2(fold change) of glutamine", "setting": "metabolite glutamine", "result": 0.0892},
      {"measurement": "Log2(fold change) of glutathione", "setting": "metabolite glutathione", "result": -0.0422},
      {"measurement": "Log2(fold change) glutathione disulfide", "setting": "metabolite glutathione disulfide", "result": -0.0039},
      {"measurement": "Log2(fold change) glycerate", "setting": "metabolite glycerate", "result": 0.0000},
      {"measurement": "Log2(fold change) guanine", "setting": "metabolite guanine", "result": -1.1501},
      {"measurement": "Log2(fold change) guanosine", "setting": "metabolite guanosine", "result": 0.0000},
      {"measurement": "Log2(fold change) histidine", "setting": "metabolite histidine", "result": 0.1439},
      {"measurement": "Log2(fold change) homocysteic acid", "setting": "metabolite homocysteic acid", "result": 0.0000},
      {"measurement": "Log2(fold change) hydroxyphenylpyruvate", "setting": "metabolite hydroxyphenylpyruvate", "result": 0.0000},
      {"measurement": "Log2(fold change) hydroxyproline/Aminolevulinate", "setting": "metabolite hydroxyproline/Aminolevulinate", "result": 0.1631},
      {"measurement": "Log2(fold change) hypoxanthine", "setting": "metabolite hypoxanthine", "result": 0.0000},
      {"measurement": "Log2(fold change) indole", "setting": "metabolite indole", "result": 0.0000},
      {"measurement": "Log2(fold change) inosine", "setting": "metabolite inosine", "result": -0.4099},
      {"measurement": "Log2(fold change) isoleucine", "setting": "metabolite isoleucine", "result": 0.1976},
      {"measurement": "Log2(fold change) lactate", "setting": "metabolite lactate", "result": -0.2436},
      {"measurement": "Log2(fold change) leucine", "setting": "metabolite leucine", "result": 0.1923},
      {"measurement": "Log2(fold change) lysine", "setting": "metabolite lysine", "result": 0.0742},
      {"measurement": "Log2(fold change) malate", "setting": "metabolite malate", "result": 0.0333},
      {"measurement": "Log2(fold change) maleic acid", "setting": "metabolite maleic acid", "result": 0.0474},
      {"measurement": "Log2(fold change) methionine", "setting": "metabolite methionine", "result": 0.2831},
      {"measurement": "Log2(fold change) myo-inositol", "setting": "metabolite myo-inositol", "result": -0.3601},
      {"measurement": "Log2(fold change) nicotinamide mononucleotide", "setting": "metabolite nicotinamide mononucleotide", "result": 0.0144},
      {"measurement": "Log2(fold change) nicotinate", "setting": "metabolite nicotinate", "result": -0.5500},
      {"measurement": "Log2(fold change) ornithine", "setting": "metabolite ornithine", "result": 0.0000},
      {"measurement": "Log2(fold change) orotate", "setting": "metabolite orotate", "result": -0.1816},
      {"measurement": "Log2(fold change) orotidine-5'-phosphate", "setting": "metabolite orotidine-5'-phosphate", "result": -0.1754},
      {"measurement": "Log2(fold change) oxaloacetate", "setting": "metabolite oxaloacetate", "result": 0.0000},
      {"measurement": "Log2(fold change) p-aminobenzoate", "setting": "metabolite p-aminobenzoate", "result": 0.0000},
      {"measurement": "Log2(fold change) p-hydroxybenzoate", "setting": "metabolite p-hydroxybenzoate", "result": 0.0000},
      {"measurement": "Log2(fold change) pantothenate", "setting": "metabolite pantothenate", "result": 0.0000},
      {"measurement": "Log2(fold change) phenylalanine", "setting": "metabolite phenylalanine", "result": 0.1566},
      {"measurement": "Log2(fold change) phenylpyruvate", "setting": "metabolite phenylpyruvate", "result": 0.0000},
      {"measurement": "Log2(fold change) phosphoenolpyruvate", "setting": "metabolite phosphoenolpyruvate", "result": 0.1381},
      {"measurement": "Log2(fold change) prephenate", "setting": "metabolite prephenate", "result": 0.0000},
      {"measurement": "Log2(fold change) proline", "setting": "metabolite proline", "result": -0.0640},
      {"measurement": "Log2(fold change) pyridoxine", "setting": "metabolite pyridoxine", "result": -0.2953},
      {"measurement": "Log2(fold change) pyruvate", "setting": "metabolite pyruvate", "result": -0.0949},
      {"measurement": "Log2(fold change) riboflavin", "setting": "metabolite riboflavin", "result": 0.0784},
      {"measurement": "Log2(fold change) ribose", "setting": "metabolite ribose", "result": 0.2671},
      {"measurement": "Log2(fold change) ribose-phosphate", "setting": "metabolite ribose-phosphate", "result": 0.0683},
      {"measurement": "Log2(fold change) ribulose-5-phosphate", "setting": "metabolite ribulose-5-phosphate", "result": 0.2669},
      {"measurement": "Log2(fold change) serine", "setting": "metabolite serine", "result": 0.0398},
      {"measurement": "Log2(fold change) sn-glycerol-3-phosphate", "setting": "metabolite sn-glycerol-3-phosphate", "result": 0.2727},
      {"measurement": "Log2(fold change) succinate/Methylmalonic acid", "setting": "metabolite succinate/Methylmalonic acid", "result": 0.1812},
      {"measurement": "Log2(fold change) succinyl-CoA/methylmalonyl-CoA", "setting": "metabolite succinyl-CoA/methylmalonyl-CoA", "result": 0.0000},
      {"measurement": "Log2(fold change) taurine", "setting": "metabolite taurine", "result": 0.1018},
      {"measurement": "Log2(fold change) thiamine", "setting": "metabolite thiamine", "result": -0.0320},
      {"measurement": "Log2(fold change) threonine/homoserine", "setting": "metabolite threonine/homoserine", "result": -0.0093},
      {"measurement": "Log2(fold change) thymidine", "setting": "metabolite thymidine", "result": 0.0000},
      {"measurement": "Log2(fold changes) thymine", "setting": "metabolite thymine, log2 fold change", "result": 0.0000},
      {"measurement": "Log2(fold changes) trehalose-6-Phosphate", "setting": "metabolite trehalose-6-Phosphate, log2 fold change", "result": 0.0000},
      {"measurement": "Log2(fold changes) tryptophan", "setting": "metabolite tryptophan, log2 fold change", "result": 0.2627},
      {"measurement": "Log2(fold changes) tyrosine", "setting": "metabolite tyrosine, log2 fold change", "result": 0.1902},
      {"measurement": "Log2(fold changes) uridine", "setting": "metabolite uridine, log2 fold change", "result": 0.0000},
      {"measurement": "Log2(fold changes) valine", "setting": "metabolite valine, log2 fold change", "result": 0.0658},
      {"measurement": "Log2(fold changes) xanthine", "setting": "metabolite xanthine, log2 fold change", "result": -0.8439},
      {"measurement": "Log2(fold changes) xanthosine-5-phosphate", "setting": "metabolite xanthosine-5-phosphate, log2 fold change", "result": 0.0356},
      {"measurement": "Log2(fold changes) xanthosine", "setting": "metabolite xanthosine, log2 fold change", "result": 0.2527},
      {"measurement": "Log2(fold changes) xylose", "setting": "metabolite xylose, log2 fold change", "result": 0.0000}
    ]}
  ]
}
